Laboratory results published in ChEMBL document CHEMBL4507329, “Data for DCP probe BTZO-1” (2021).

Columns and labels:
[1] = target: Homeodomain-interacting protein kinase 4 (Homo sapiens) (UniProt Q8NE63); details: Compound concentration 1000.0 nM
[2] = target: Delta-type opioid receptor (Homo sapiens) (UniProt P41143); details: Compound concentration 10.0 uM
[3] = target: Serine/threonine-protein kinase RIO1 (Homo sapiens) (UniProt Q9BRS2); details: Compound concentration 1000.0 nM
[4] = target: Tyrosine-protein kinase Srms (Homo sapiens) (UniProt Q9H3Y6); details: Compound concentration 1000.0 nM
[5] = target: Mitogen-activated protein kinase kinase kinase 12 (Homo sapiens) (UniProt Q12852); details: Compound concentration 1000.0 nM
[6] = target: Microtubule-associated serine/threonine-protein kinase 1 (Homo sapiens) (UniProt Q9Y2H9); details: Compound concentration 1000.0 nM
[7] = target: Tyrosine-protein kinase receptor Tie-1 (Homo sapiens) (UniProt P35590); details: Compound concentration 1000.0 nM
[8] = test system: Tyrosine-protein kinase ABL1 (Homo sapiens), P00519 [H396P]; details: Compound concentration 1000.0 nM
[9] = target: Calcium/calmodulin-dependent protein kinase type II subunit beta (Homo sapiens) (UniProt Q13554); details: Compound concentration 1000.0 nM
[10] = target: Cyclin-dependent kinase 15 (Homo sapiens) (UniProt Q96Q40); details: Compound concentration 1000.0 nM
[11] = target: Interferon-induced, double-stranded RNA-activated protein kinase (Homo sapiens) (UniProt P19525); details: Compound concentration 1000.0 nM
[12] = target: Serine/threonine-protein kinase Nek11 (Homo sapiens) (UniProt Q8NG66); details: Compound concentration 1000.0 nM
[13] = target: Serine/threonine-protein kinase PAK 1 (Homo sapiens) (UniProt Q13153); details: Compound concentration 1000.0 nM
[14] = target: Cyclin-dependent kinase 4 (Homo sapiens) (UniProt P11802); details: Compound concentration 1000.0 nM
[15] = target: Calcium/calmodulin-dependent protein kinase type 1G (Homo sapiens) (UniProt Q96NX5); details: Compound concentration 1000.0 nM
[16] = target: Mitogen-activated protein kinase 14 (Homo sapiens) (UniProt Q16539); details: Compound concentration 1000.0 nM
[17] = target: Beta-1 adrenergic receptor (Homo sapiens) (UniProt P08588); details: Compound concentration 10.0 uM
[18] = target: Tyrosine-protein kinase BTK (Homo sapiens) (UniProt Q06187); details: Compound concentration 1000.0 nM
[19] = test system: Fibroblast growth factor receptor 3 (Homo sapiens), P22607 [G697C]; details: Compound concentration 1000.0 nM
[20] = target: Mitotic checkpoint serine/threonine-protein kinase BUB1 (Homo sapiens) (UniProt O43683); details: Compound concentration 1000.0 nM
[21] = test system: Epidermal growth factor receptor (Homo sapiens), P00533 [L858R]; details: Compound concentration 1000.0 nM
[22] = target: Mitogen-activated protein kinase kinase kinase 3 (Homo sapiens) (UniProt Q99759); details: Compound concentration 1000.0 nM
[23] = target: Mitogen-activated protein kinase 15 (Homo sapiens) (UniProt Q8TD08); details: Compound concentration 1000.0 nM
[24] = target: Dual specificity tyrosine-phosphorylation-regulated kinase 1A (Homo sapiens) (UniProt Q13627); details: Compound concentration 1000.0 nM
[25] = target: Serine/threonine-protein kinase PLK4 (Homo sapiens) (UniProt O00444); details: Compound concentration 1000.0 nM
[26] = target: Serine/threonine-protein kinase Nek2 (Homo sapiens) (UniProt P51955); details: Compound concentration 1000.0 nM
[27] = target: Dual specificity mitogen-activated protein kinase kinase 6 (Homo sapiens) (UniProt P52564); details: Compound concentration 1000.0 nM
[28] = target: Ephrin type-A receptor 4 (Homo sapiens) (UniProt P54764); details: Compound concentration 1000.0 nM
[29] = target: Tyrosine-protein kinase JAK1 (Homo sapiens) (UniProt P23458); details: Compound concentration 1000.0 nM
[30] = target: STE20-like serine/threonine-protein kinase (Homo sapiens) (UniProt Q9H2G2); details: Compound concentration 1000.0 nM
[31] = test system: Receptor-type tyrosine-protein kinase FLT3 (Homo sapiens), P36888 [D835H]; details: Compound concentration 1000.0 nM
[32] = target: Serine/threonine-protein kinase MARK1 (Homo sapiens) (UniProt Q9P0L2); details: Compound concentration 1000.0 nM
[33] = target: Insulin-like growth factor 1 receptor (Homo sapiens) (UniProt P08069); details: Compound concentration 1000.0 nM
[34] = target: Serine/threonine-protein kinase Sgk3 (Homo sapiens) (UniProt Q96BR1); details: Compound concentration 1000.0 nM
[35] = target: Serine/threonine-protein kinase SIK2 (Homo sapiens) (UniProt Q9H0K1); details: Compound concentration 1000.0 nM
[36] = target: Calcium/calmodulin-dependent protein kinase type II subunit alpha (Homo sapiens) (UniProt Q9UQM7); details: Compound concentration 1000.0 nM
[37] = target: Serine/threonine-protein kinase N2 (Homo sapiens) (UniProt Q16513); details: Compound concentration 1000.0 nM
[38] = target: Mitogen-activated protein kinase kinase kinase 13 (Homo sapiens) (UniProt O43283); details: Compound concentration 1000.0 nM
[39] = target: Fibroblast growth factor receptor 4 (Homo sapiens) (UniProt P22455); details: Compound concentration 1000.0 nM
[40] = target: Epidermal growth factor receptor (Homo sapiens) (UniProt P00533); details: Compound concentration 1000.0 nM
[41] = target: Serine/threonine-protein kinase TNNI3K (Homo sapiens) (UniProt Q59H18); details: Compound concentration 1000.0 nM
[42] = target: Casein kinase I isoform gamma-1 (Homo sapiens) (UniProt Q9HCP0); details: Compound concentration 1000.0 nM
[43] = test system: Phosphatidylinositol 4,5-bisphosphate 3-kinase catalytic subunit alpha isoform (Homo sapiens), P42336 [E545A]; details: Compound concentration 1000.0 nM
[44] = test system: Phosphatidylinositol 4,5-bisphosphate 3-kinase catalytic subunit alpha isoform (Homo sapiens), P42336 [C420R]; details: Compound concentration 1000.0 nM
[45] = target: RAC-gamma serine/threonine-protein kinase (Homo sapiens) (UniProt Q9Y243); details: Compound concentration 1000.0 nM

Calcium/calmodulin-dependent protein kinase type 1G (Homo sapiens), sequence (Q96NX5 whole entry): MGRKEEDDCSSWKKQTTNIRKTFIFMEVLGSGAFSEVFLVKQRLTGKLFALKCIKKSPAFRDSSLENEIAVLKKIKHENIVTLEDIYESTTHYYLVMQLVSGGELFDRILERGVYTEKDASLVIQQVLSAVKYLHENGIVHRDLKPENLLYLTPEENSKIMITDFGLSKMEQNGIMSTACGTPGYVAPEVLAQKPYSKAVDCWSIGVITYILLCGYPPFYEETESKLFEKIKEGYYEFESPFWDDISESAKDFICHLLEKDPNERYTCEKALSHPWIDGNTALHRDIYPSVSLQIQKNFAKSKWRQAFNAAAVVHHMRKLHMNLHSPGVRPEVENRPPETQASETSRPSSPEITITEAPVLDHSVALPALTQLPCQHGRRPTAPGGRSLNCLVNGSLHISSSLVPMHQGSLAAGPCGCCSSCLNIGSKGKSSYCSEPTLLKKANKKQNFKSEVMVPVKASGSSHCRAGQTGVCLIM
Tyrosine-protein kinase BTK (Homo sapiens), sequence (Q06187 whole entry): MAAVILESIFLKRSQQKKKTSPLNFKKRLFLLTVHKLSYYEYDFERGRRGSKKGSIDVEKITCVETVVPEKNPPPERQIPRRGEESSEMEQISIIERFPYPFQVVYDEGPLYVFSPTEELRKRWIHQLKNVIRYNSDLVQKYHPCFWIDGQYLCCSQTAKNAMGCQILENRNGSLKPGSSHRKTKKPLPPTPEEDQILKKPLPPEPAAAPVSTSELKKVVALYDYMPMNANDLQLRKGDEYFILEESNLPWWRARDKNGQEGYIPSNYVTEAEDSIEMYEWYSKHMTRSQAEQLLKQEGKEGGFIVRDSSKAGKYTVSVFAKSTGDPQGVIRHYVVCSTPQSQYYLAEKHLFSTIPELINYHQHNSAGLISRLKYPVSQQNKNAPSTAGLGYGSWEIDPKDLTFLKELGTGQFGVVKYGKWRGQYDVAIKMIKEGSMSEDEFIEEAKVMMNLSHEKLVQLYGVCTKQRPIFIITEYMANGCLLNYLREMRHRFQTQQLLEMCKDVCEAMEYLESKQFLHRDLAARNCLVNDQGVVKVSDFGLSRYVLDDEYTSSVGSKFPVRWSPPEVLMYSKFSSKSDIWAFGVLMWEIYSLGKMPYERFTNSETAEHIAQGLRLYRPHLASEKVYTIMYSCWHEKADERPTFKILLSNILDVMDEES
Mitogen-activated protein kinase 15 (Homo sapiens), sequence (Q8TD08 whole entry): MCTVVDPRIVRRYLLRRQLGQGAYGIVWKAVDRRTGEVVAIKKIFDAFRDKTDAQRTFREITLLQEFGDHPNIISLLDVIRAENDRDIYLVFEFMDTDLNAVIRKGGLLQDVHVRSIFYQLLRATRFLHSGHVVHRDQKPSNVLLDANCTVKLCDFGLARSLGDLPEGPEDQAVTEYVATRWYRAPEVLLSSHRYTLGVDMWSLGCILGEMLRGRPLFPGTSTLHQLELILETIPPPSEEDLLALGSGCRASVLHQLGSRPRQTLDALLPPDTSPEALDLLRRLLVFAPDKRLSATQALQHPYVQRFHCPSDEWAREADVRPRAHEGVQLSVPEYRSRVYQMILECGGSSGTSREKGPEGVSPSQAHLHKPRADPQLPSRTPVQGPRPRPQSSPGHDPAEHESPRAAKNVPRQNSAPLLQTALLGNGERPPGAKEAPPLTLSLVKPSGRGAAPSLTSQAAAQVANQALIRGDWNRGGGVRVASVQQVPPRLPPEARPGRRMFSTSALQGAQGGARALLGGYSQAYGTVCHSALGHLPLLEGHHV
Beta-1 adrenergic receptor (Homo sapiens), sequence (P08588 whole entry, looked up): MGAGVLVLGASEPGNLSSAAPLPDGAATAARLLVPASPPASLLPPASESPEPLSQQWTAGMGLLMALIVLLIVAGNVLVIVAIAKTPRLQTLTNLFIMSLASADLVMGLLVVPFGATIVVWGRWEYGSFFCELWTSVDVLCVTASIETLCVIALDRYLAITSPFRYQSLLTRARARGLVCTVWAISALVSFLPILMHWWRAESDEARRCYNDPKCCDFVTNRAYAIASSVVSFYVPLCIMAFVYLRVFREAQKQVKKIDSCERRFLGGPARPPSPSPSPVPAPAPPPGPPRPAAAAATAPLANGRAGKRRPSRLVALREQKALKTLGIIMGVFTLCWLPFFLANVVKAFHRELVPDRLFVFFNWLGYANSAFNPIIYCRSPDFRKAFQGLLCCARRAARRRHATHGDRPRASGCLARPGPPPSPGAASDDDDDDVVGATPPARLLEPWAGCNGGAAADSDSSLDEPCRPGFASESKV
Serine/threonine-protein kinase RIO1 (Homo sapiens), sequence (Q9BRS2 whole entry): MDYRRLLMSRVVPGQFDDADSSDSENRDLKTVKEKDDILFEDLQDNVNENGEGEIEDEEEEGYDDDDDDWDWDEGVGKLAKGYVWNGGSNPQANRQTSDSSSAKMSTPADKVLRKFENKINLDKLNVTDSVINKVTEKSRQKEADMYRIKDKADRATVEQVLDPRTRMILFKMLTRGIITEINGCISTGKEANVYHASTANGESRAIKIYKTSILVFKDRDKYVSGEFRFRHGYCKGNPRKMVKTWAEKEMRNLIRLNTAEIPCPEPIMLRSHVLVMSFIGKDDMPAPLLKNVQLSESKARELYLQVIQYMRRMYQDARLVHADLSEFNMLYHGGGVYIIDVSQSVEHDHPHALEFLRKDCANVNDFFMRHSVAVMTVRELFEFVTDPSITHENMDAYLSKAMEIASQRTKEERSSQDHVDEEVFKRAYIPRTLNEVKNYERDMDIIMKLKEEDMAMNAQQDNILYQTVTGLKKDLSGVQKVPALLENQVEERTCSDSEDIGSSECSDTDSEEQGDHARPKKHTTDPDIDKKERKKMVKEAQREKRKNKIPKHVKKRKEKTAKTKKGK
Insulin-like growth factor 1 receptor (Homo sapiens), sequence (P08069 31-736 limits assumed): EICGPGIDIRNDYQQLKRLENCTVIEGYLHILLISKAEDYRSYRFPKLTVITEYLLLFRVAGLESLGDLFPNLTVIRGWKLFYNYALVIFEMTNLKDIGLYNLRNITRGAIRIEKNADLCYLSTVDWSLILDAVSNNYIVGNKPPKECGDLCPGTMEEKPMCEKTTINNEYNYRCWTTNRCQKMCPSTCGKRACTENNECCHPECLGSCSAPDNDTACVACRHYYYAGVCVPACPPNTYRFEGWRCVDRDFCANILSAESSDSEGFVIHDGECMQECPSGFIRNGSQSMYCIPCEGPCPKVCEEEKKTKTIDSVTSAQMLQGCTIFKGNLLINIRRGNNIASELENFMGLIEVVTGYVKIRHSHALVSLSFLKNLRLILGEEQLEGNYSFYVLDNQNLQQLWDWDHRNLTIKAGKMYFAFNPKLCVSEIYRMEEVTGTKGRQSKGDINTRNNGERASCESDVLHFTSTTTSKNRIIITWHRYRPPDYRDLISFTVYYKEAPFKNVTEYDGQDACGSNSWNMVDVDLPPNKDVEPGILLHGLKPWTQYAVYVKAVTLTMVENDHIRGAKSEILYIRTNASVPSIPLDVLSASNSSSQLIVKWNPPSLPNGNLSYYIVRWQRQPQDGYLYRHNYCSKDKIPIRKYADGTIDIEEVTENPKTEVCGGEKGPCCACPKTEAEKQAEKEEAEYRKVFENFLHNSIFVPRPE
Insulin-like growth factor 1 receptor (Homo sapiens), sequence (P08069 741-1367 limits assumed): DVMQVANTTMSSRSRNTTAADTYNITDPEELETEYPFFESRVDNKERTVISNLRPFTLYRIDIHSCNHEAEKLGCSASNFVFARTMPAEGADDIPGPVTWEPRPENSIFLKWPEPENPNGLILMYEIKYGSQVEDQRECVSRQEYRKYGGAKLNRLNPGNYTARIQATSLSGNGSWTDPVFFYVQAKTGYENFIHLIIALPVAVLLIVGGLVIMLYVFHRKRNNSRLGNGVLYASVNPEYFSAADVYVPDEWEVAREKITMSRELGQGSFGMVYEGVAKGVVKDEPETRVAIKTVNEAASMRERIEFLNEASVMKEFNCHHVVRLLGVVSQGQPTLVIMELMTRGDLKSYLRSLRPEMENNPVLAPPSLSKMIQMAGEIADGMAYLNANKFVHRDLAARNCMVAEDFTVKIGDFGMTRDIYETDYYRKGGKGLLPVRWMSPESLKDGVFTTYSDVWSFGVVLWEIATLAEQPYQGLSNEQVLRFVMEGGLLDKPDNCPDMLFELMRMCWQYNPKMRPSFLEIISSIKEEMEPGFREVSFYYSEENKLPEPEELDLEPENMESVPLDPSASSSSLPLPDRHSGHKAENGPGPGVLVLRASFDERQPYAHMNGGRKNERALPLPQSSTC
Calcium/calmodulin-dependent protein kinase type II subunit beta (Homo sapiens), sequence (Q13554 whole entry): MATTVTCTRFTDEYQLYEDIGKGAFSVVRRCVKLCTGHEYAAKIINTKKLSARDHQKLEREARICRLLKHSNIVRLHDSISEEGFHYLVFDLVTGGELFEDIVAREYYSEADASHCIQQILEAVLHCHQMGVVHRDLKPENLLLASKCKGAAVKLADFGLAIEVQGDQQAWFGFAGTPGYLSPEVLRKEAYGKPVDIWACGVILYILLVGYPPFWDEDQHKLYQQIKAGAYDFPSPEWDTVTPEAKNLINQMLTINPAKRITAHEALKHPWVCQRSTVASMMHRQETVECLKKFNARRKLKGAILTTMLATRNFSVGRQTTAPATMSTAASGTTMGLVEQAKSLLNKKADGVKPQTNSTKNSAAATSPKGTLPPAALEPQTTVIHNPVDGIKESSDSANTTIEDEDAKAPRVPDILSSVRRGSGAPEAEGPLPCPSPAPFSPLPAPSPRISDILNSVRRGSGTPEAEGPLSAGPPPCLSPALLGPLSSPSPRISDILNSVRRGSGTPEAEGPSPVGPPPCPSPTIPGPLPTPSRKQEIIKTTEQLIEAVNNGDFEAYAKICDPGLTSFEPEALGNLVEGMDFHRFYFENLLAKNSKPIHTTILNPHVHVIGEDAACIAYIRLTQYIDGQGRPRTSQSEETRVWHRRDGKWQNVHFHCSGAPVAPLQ
Cyclin-dependent kinase 4 (Homo sapiens), sequence (P11802 whole entry): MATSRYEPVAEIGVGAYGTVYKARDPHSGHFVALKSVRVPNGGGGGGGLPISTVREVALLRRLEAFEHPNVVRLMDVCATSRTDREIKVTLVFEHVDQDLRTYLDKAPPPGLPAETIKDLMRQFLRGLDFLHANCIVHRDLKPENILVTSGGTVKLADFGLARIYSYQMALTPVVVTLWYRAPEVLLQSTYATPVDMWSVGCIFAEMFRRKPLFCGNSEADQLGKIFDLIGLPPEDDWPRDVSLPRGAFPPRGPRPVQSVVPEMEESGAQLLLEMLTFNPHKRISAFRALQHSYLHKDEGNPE

O=c1nc(-c2ccccn2)sc2ccccc12 [BTZO-1]
inactive: residual activity [1] 85% | inhibition [2] 4.81% | residual activity [3] 85% | residual activity [4] 87% | residual activity [5] 100% | residual activity [6] 73% | residual activity [7] 91% | residual activity [8] 99% | residual activity [9] 100% | residual activity [10] 75% | residual activity [11] 100% | residual activity [12] 100% | residual activity [13] 94% | residual activity [14] 90% | residual activity [15] 100% | residual activity [16] 94% | inhibition [17] -8.56% | residual activity [18] 96% | residual activity [19] 100% | residual activity [20] 100% | residual activity [21] 81% | residual activity [22] 77% | residual activity [23] 100% | residual activity [24] 91% | residual activity [25] 80% | residual activity [26] 84% | residual activity [27] 100% | residual activity [28] 100% | residual activity [29] 86% | residual activity [30] 85% | residual activity [31] 74% | residual activity [32] 100% | residual activity [33] 80% | residual activity [34] 100% | residual activity [35] 86% | residual activity [36] 100% | residual activity [37] 100% | residual activity [38] 100% | residual activity [39] 73% | residual activity [40] 70% | residual activity [41] 87% | residual activity [42] 96% | residual activity [43] 92% | residual activity [44] 94% | residual activity [45] 100%

O=C1NC(c2ccccn2)Sc2ccccc21 (stereo not given) [BTZO-4]
inactive: residual activity [1] 70% | inhibition [2] -0.624% | residual activity [3] 80% | residual activity [4] 84% | residual activity [5] 100% | residual activity [6] 91% | residual activity [7] 65% | residual activity [8] 84% | residual activity [9] 100% | residual activity [10] 63% | residual activity [11] 91% | residual activity [12] 95% | residual activity [13] 96% | residual activity [14] 81% | residual activity [15] 100% | residual activity [16] 81% | inhibition [17] -1.52% | residual activity [18] 74% | residual activity [19] 100% | residual activity [20] 100% | residual activity [21] 86% | residual activity [22] 93% | residual activity [23] 100% | residual activity [24] 100% | residual activity [25] 76% | residual activity [26] 100% | residual activity [27] 100% | residual activity [28] 89% | residual activity [29] 69% | residual activity [30] 76% | residual activity [31] 65% | residual activity [32] 99% | residual activity [33] 80% | residual activity [34] 100% | residual activity [35] 96% | residual activity [36] 100% | residual activity [37] 100% | residual activity [38] 100% | residual activity [39] 89% | residual activity [40] 82% | residual activity [41] 87% | residual activity [42] 90% | residual activity [43] 97% | residual activity [44] 100% | residual activity [45] 100%
